Source: patent US8927717B1, “Thiochromeno[2,3-c]quinolin-12-one derivatives, preparation method and application thereof” (National Defense Medical Center, priority 2014, dated 2015)
Read-outs that look alike come from different tables or passages of the source.

How the values were obtained:
DU-145 cell line = assay: MTT assay for cell cytotoxicity; assay type: cell-based, human; conditions: read-out: MTT assay (IC50 ± SD) DU-145
Procedure: (§1) All of synthesis compounds were evaluated cell cytotoxicity by using MTT colorimetric assay on PC-3 and DU-145 cell lines. DU-145 and PC-3 are human hormone-refractory (androgen-independent) prostatic cancer cell lines from American Type Culture Collection (HTB-81™, ATCC, Rockville, Md.)^125 and Bioresource Collection and Research Center (60122, BCRC, Taiwan)^126, respectively. Two of the “classical” cell lines were cultivated in RPMI-1640 medium supplemented with 5% fetal bovine serum (v/v), 100 U/mL penicillin, and […] streptomycin. Approximately 2×10^3 cells were seeded into each well of a 96-well plate and incubated in 5% CO2 at 37° C. for 24 h. To evaluate the in vitro cytotoxicity, all the synthetic compounds were dissolved in DMSO, prepared immediately before the experiments and diluted into the complete medium before being added to each well of a 96-well plate. Each compound was then added to the culture medium for designated various concentrations (0.15, 0.5, 1.5, 5, 15 μM). After 72 h, an amount of 100 μL of MTT (1 mg/mL) was added to each well, and the samples were incubated at 37° C. for 4 h. After removing the MTT solution, 100 μL of DMSO was added to each well and incubated at 37° C. for another 20 mins. The absorbency at 560 nm was measured by using an ELISA reader.
(§2) Results are expressed as mean values of at least three independent experiments. The IC50 values of testing compounds were described in Table 1.

PC-3 cell line = assay: MTT assay for cell cytotoxicity; assay type: cell-based, human; conditions: read-out: MTT assay (IC50 ± SD) PC-3
Procedure: as §1, §2

Compound	IC50 (DU-145 cell line; DU-145 cells, 72 h, at least three independent experiments)	IC50 (PC-3 cell line; PC-3 cells, 72 h, at least three independent experiments)	IC50 (DU-145 cell line; Homo sapiens, DU-145, 72 h)	IC50 (PC-3 cell line; Homo sapiens, PC-3, 72 h)
O=c1c2cc(Cl)ccc2sc2c(NCCO)nc3ccccc3c12 [Compound N9, 10-Chloro-6-(2-ethanolamino)-12H-thiochromeno[2,3-c]quinolin-12-one]	11.6 ± 7.23 µM	7.48 ± 3.35 µM		
CC(C)CC(C)Nc1nc2ccccc2c2c(=O)c3cc(Cl)ccc3sc12 (stereo not shown) [Compound N13, 10-Chloro-6-((4-methylpentan-2-yl)amino)-12H-thiochromeno[2,3-c]quinolin-12-one]			14.2 ± 1.18 µM	10.4 ± 2.3 µM
